One test deals with T1, COX-1 (Homo sapiens, UniProt P23219).
T1 construct: platelets in whole blood contain a large amount of the COX-1 enzyme; endogenous in cells; host or cells: platelets in fresh human whole blood
The test can be described thus: Human whole blood assay: COX-1 (clotting-induced TxB2 production). The class given is cell-based. The settings on record: clotting-induced TxB2, 1 hour at 37° C. The text has this:
(§1) As well, platelets in whole blood contain a large amount of the COX-1 enzyme. Immediately following blood clotting, platelets are activated through a thrombin-mediated mechanism. This reaction results in the production of thromboxane B2 (TxB2) via activation of COX-1. Thus, the effect of test compounds on TxB2 levels following blood clotting can be examined and used as an index for COX-1 activity. Therefore, the degree of selectivity by the test compound can be determined by measuring the levels of PGE2 after LPS induction (COX-2) and TxB2 following blood clotting (COX-1) in the same assay.
Fresh blood was collected into vacutainer tubes containing no anticoagulants. […] The tubes were vortexed and incubated at 37° C. for 1 hour to allow blood to clot. Serum was obtained by centrifugation (12,000×g for 5 min). Serum protein is precipitated by mixing a 100 μL aliquot of serum with 400 μL of methanol.
(§2) In the assay, inhibition is determined by measuring the amount of prostaglandin E2 (PGE2) synthesized in the presence of arachidonic acid, COX-1 or COX-2 and a putative inhibitor.

The next test has as its target T2, COX-2 (Homo sapiens, UniProt P35354).
T2 construct: incubation of human whole blood with LPS which induces COX-2; endogenous in cells
T2 sequence (P35354 18-604): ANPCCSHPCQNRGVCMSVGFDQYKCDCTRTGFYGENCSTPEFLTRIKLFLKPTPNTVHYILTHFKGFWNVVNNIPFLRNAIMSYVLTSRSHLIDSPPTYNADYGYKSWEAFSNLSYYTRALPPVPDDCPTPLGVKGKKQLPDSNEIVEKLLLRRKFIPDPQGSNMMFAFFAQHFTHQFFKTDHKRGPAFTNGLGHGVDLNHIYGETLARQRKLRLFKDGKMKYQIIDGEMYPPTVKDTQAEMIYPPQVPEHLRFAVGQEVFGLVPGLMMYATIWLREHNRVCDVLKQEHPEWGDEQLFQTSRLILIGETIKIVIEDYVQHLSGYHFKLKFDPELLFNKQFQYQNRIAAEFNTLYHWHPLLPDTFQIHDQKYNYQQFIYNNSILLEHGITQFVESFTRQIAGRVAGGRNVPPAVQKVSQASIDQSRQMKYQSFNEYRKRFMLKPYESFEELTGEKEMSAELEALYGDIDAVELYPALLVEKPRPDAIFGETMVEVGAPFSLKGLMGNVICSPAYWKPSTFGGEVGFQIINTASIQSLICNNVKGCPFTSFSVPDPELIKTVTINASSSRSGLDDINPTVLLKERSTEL
The test can be described thus: Human whole blood assay: COX-2 (LPS-induced PGE2 production). The class given is cell-based. Particulars: LPS-induced PGE2, 24 hours at 37° C.
Excerpt: as §1
Fresh blood was collected in heparinized tubes by venipuncture from both male and female volunteers. The subjects had no apparent inflammatory conditions and had not taken any NSAIDs for at least 7 days prior to blood collection. Plasma was immediately obtained from a 2 mL blood aliquot to use as blank (basal levels of PGE2). […] Five hundred μL aliquots of blood were incubated with either […] vehicle (DMSO) or 2 μL of a test compound at final concentrations varying from 10 nM to 30 μM for 24 hours at 37° C. At the end of the incubation, the blood was centrifuged at 12,000×g for 5 minutes to obtain plasma. Protein in the plasma is precipitated by mixing a 100 μL aliquot of plasma with 400 μL of methanol. The supernatant was assayed for PGE2 using a radioimmunoassay kit (Amersham, RPA#530) after conversion of PGE2 to its methyl oximate derivative according to the manufacturer's procedure.
as §2

For test [1], the system named is carrageenan paw edema, rats. Description: Rat paw edema assay (carrageenan). Particulars: po, 1 hr before carrageenan, paw volume 3 hr later, read-out: ED50 (edema inhibition in rat paw). It is filed as in vivo, Male Sprague-Dawley rats. As for the experimental part:
Male Sprague-Dawley rats (150-200 g) were fasted overnight and were given, po, either vehicle (1% methocel or 5% Tween 80), or a test compound. One hr later, a line was drawn using a permanent marker at the level above the ankle in one hind paw to define the area of the paw to be monitored. The paw volume (V0) was measured using a plethysmometer (Ugo-Basile, Italy) based on the principle of water displacement. The animals were then injected subplantarly with 50 ,l of 1% carrageenan solution in saline (FMC Corp, Maine) into the paw using an insulin syringe with a 25-gauge needle (i.e., 500 μg carrageenan per paw). Three hr later, the paw volume (V3) was measured and the increases in paw volume (V3 -V0) were calculated. The animals were sacrificed by CO2 asphyxiation and the absence or presence of stomach lesions scored. Data were compared with the vehicle-control values and percent inhibition calculated. ED50 values were used for comparison. All treatment groups were coded to eliminate observer bias.

Structures are written as SMILES. pIC50: −log10 of the molar value.

T1 sequence (P23219 24-599): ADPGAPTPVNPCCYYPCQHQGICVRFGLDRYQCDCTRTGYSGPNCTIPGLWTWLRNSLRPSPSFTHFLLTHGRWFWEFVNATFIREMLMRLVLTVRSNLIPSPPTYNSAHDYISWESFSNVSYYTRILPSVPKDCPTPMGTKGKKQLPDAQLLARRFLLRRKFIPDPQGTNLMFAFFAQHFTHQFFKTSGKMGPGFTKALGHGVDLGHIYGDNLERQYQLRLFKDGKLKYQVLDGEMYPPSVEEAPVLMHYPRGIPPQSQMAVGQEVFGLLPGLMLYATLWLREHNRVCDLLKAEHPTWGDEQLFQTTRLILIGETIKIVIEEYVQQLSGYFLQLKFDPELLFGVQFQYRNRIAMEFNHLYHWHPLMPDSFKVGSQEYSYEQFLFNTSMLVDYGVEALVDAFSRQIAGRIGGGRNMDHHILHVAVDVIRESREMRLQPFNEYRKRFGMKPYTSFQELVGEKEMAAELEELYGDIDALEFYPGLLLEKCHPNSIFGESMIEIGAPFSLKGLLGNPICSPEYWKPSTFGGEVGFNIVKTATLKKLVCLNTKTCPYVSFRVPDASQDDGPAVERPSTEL

A word on the pIC50: it is −log10 of the IC50, conventionally taken in molar units. A lower pIC50 goes with a high IC50. Take `CS(=O)(=O)c1ccc(-c2sn[n+]([O-])c2-c2ccc(F)c(F)c2)cc1` [Example 4, 4-(3,4-DIFLUOROPHENYL)-5-(4-(METHYLSULFONYL)PHENYL-1-2-3-THIADIAZOL-3-OXIDE]: the pIC50 at COX-1 is 4.24; at COX-2 it was 6.30.
Usually ED50 stands for the midpoint of the dose-response relation. With `CS(=O)(=O)c1ccc(-c2sn[n+]([O-])c2-c2ccc(F)cc2)cc1` [Example 2, 4-(4-FLUOROPHENYL)-5-(4-(METHYLSULFONYL)PHENYL-1-2-3-THIADIAZOL-3-OXIDE], the figures for the pIC50 against COX-1 and against COX-2 were 4.74 and 6.22, respectively. The ED50 in test [1] worked out at 0.5 mg/kg.
For `COc1ccc2c(c1)c(CC(=O)O)c(C)n2C(=O)c1ccc(Cl)cc1` [Indomethacin, reference compound], the ED50 in test [1] turned out to be 2 mg/kg.
Turning to `CS(=O)(=O)c1ccc(-c2sn[n+]([O-])c2-c2ccccc2)cc1` [Example 1, 4-PHENYL-5-(4-(METHYLSULFONYL)PHENYL-1-2-3--THIADIAZOL-3-OXIDE], the pIC50 on COX-1 was 4.42; at COX-2, 6.22. In test [1], the ED50 is 0.9 mg/kg.
On to `CS(=O)(=O)c1ccc(-c2sn[n+]([O-])c2-c2cccc(F)c2)cc1` [Example 3, 4-(3-FLUOROPHENYL)-5-(4-(METHYLSULFONYL)PHENYL-1-2-3-THIADIAZOL-3-OXIDE], for which the pIC50 was 4.06 at COX-1 and 5.89 against COX-2.
Take `CS(=O)(=O)c1ccc(-c2sn[n+]([O-])c2-c2cccc(Cl)c2)cc1` [Example 5, 4-(3-CHLOROPHENYL)-5-(4-(METHYLSULFONYL)PHENYL-1-2-3-THIADIAZOL-3-OXIDE]: the pIC50 at COX-2 was 6.30. Also, the ED50 in test [1] came to 1.5 mg/kg.
